Counter-ions that a name gives are not always drawn.
system: SMN2 promoter; assay: SMN2 promoter assay in NSC-34 cells (β-lactamase reporter); type: cell-based, mouse; conditions: Mus musculus, Table 1, SMN2 promoter driving β-lactamase, 12 point dose curve, read-out: Promoter Assay EC50
Excerpt: All compounds were screened using an in vitro based SMN2 promoter assay. We used NSC-34 cells, a hybrid cell line between mouse spinal cord cells and mouse neuroblastoma cells. NSC-34 cells harbor an expression plasmid containing a 3.4 kb promoter fragment of the SMN2 gene driving β-lactamase expression.
[…] […] CCF2-AM diffuses across the plasma membrane and is converted into an active β-lactamase substrate by cytoplasmic esterase. […] The fold induction is proportional to the extent of β-lactamase produced and in turn proportional to SMN2 promoter activation for a given compound relative to vehicle (DMSO) control. […] These values are used to rank activities of the compounds and derive structure activity relationship.

EC50	SMILES
< 1000 nM	Nc1nc(N)c2c(OCC3CCN(Cc4ccc(Cl)cc4)CC3)cccc2n1 [Example-004, 5-[1-(4-Chlorobenzyl)piperidin-4-ylmethoxy]quinazoline-2,4-diamine hydrochloride]
< 1000 nM	Nc1nc(N)c2c(OCC3CCN(Cc4ccc(F)c(F)c4)CC3)cccc2n1 [Example-011, 5-[1-(3,4-Difluorobenzyl)piperidin-4-ylmethoxy]quinazoline-2,4-diamine]
< 1000 nM	Nc1nc(N)c2c(OCC3CCN(C(=O)c4ccccc4F)CC3)cccc2n1 [Example-013, [4-(2,4-Diaminoquinazolin-5-yloxymethyl)piperidin-1-yl](2-fluorophenyl)methanone]
< 1000 nM	Nc1nc(N)c2c(OCC3CCN(C(=O)c4ccc5ccccc5c4)CC3)cccc2n1 [Example-018, [4-(2,4-Diaminoquinazolin-5-yloxymethyl)piperidin-1-yl]naphthalen-2-yl-methanone]
< 1000 nM	Cc1ccccc1C(=O)N1CCC(COc2cccc3nc(N)nc(N)c23)CC1 [Example-019, [4-(2,4-Diaminoquinazolin-5-yloxymethyl)piperidin-1-yl]-o-tolylmethanone]
< 1000 nM	Cc1cccc(C(=O)N2CCC(COc3cccc4nc(N)nc(N)c34)CC2)c1 [Example-020, [4-(2,4-Diaminoquinazolin-5-yloxymethyl)piperidin-1-yl]-m-tolylmethanone]
< 1000 nM	Cc1ccc(C(=O)N2CCC(COc3cccc4nc(N)nc(N)c34)CC2)cc1 [Example-021, [4-(2,4-Diaminoquinazolin-5-yloxymethyl)piperidin-1-yl]-p-tolylmethanone]
< 1000 nM	Nc1nc(N)c2c(OCC3CCN(C(=O)c4ccc(F)cc4F)CC3)cccc2n1 [Example-022, [4-(2,4-Diaminoquinazolin-5-yloxymethyl)piperidin-1-yl]-(2,4-difluorophenyl)methanone]
< 1000 nM	Nc1nc(N)c2c(OCC3CCN(C(=O)c4ccc(F)c(F)c4)CC3)cccc2n1 [Example-023, [4-(2,4-Diaminoquinazolin-5-yloxymethyl)piperidin-1-yl]-(3,4-difluorophenyl)methanone]
< 1000 nM	Nc1nc(N)c2c(OCC3(S(=O)(=O)c4cccc(Cl)c4)CCNCC3)cccc2n1 [Example-026, 5-[4-(3-Chlorobenzenesulfonyl)piperidin-4-ylmethoxy]quinazoline-2,4-diamine]
< 1000 nM	Nc1nc(N)c2c(OCC3(S(=O)(=O)c4ccccc4Cl)CCNCC3)cccc2n1 [Example-027, 5-[4-(2-Chlorobenzenesulfonyl)piperidin-4-ylmethoxy]quinazoline-2,4-diamine]
< 1000 nM	Cc1cccc(S(=O)(=O)N2CCC(COc3cccc4nc(N)nc(N)c34)CC2)c1 [Example-032, 5-[1-(Toluene-3-sulfonyl)piperidin-4-ylmethoxy]quinazoline-2,4-diamine]
< 1000 nM	Nc1nc(N)c2c(OCC3(S(=O)(=O)c4ccc(F)c(F)c4)CCNCC3)cccc2n1 [Example-035, 5-[4-(3,4-Difluorobenzenesulfonyl)-piperidin-4-ylmethoxy]quinazoline-2,4-diamine]

same assay, conditions: Mus musculus, Table 4, SMN2 promoter driving β-lactamase, read-out: Promoter Assay EC50 for 2391.003C(P)

EC50	SMILES
1000 to 5000 nM	CC(C)(C)OC(=O)N1CCN(c2cccc3nc(N)nc(N)c23)CC1 [Examplc-219, 4-(2,4-Diaminoquinazolin-5-yl)piperazine-1-carboxylic acid tert-butyl ester]

same assay, conditions: Mus musculus, Table 6, SMN2 promoter driving β-lactamase, read-out: Promoter Assay EC50

EC50	SMILES
1000 to 5000 nM	Nc1nc(N)c2c(OCC3CC[N+]([O-])(Cc4ccccc4F)CC3)cccc2n1 (centres unmarked) [Examplc-221]

same assay, conditions: Table 1, SMN2 promoter driving β-lactamase, 12 point dose curve, read-out: Promoter Assay EC50

EC50	SMILES
< 1000 nM	Nc1nc(N)c2c(OCC3CCN(Cc4cccc5ccccc45)CC3)cccc2n1 [Example-005]
< 1000 nM	Nc1nc(N)c2c(OCC3CCN(S(=O)(=O)c4ccc(Cl)cc4)CC3)cccc2n1 [Example-028]
< 1000 nM	Nc1nc(N)c2c(OCC3CCN(S(=O)(=O)c4cccc5ccccc45)CC3)cccc2n1 [Example-029]
< 1000 nM	Nc1nc(N)c2c(OCC3CCN(S(=O)(=O)c4ccc5ccccc5c4)CC3)cccc2n1 [Example-030]
< 1000 nM	CC(C)(C)OC(=O)N1CCC(COc2cccc3nc(N)nc(N)c23)CC1 [Example-037]
< 1000 nM	Nc1nc(N)c2c(OCC3CCN(C(=O)c4ccc(I)cc4)CC3)cccc2n1 [Example-040]
< 1000 nM	Nc1nc(N)c2c(OCC3CCN(C(=O)c4ccccc4I)CC3)cccc2n1 [Example-041]
< 1000 nM	Nc1nc(N)c2c(OCC3CCN(Cc4ccc(I)cc4)CC3)cccc2n1 [Example-044]
1000 to 5000 nM	COc1ccc(CC(=O)N2CCC(COc3cccc4nc(N)nc(N)c34)CC2)cc1 [Example-045]
< 1000 nM	Nc1nc(N)c2c(OCC3CCN(C(=O)c4cccc(F)c4)CC3)cccc2n1 [Example-046]
< 1000 nM	CS(=O)(=O)c1ccc(CN2CCC(COc3cccc4nc(N)nc(N)c34)CC2)cc1 [Example-047]
< 1000 nM	CC(C)(C)C(=O)N1CCC(COc2cccc3nc(N)nc(N)c23)CC1 [Example-048]
< 1000 nM	CC1CCC(C(=O)N2CCC(COc3cccc4nc(N)nc(N)c34)CC2)CC1 (centres unmarked) [Example-049]
< 1000 nM	Nc1nc(N)c2c(OCC3CCN(C(=O)c4ccc(Cl)nc4)CC3)cccc2n1 [Example-051]
< 1000 nM	Nc1nc(N)c2c(OCC3CCN(C(=O)c4cc(F)ccc4F)CC3)cccc2n1 [Example-052]
< 1000 nM	Nc1nc(N)c2c(OCC3CCN(C(=O)c4cc(Cl)cc(Cl)c4)CC3)cccc2n1 [Example-054]
< 1000 nM	Nc1nc(N)c2c(OCC3CCN(C(=O)c4cccs4)CC3)cccc2n1 [Example-055]
< 1000 nM	COc1ccc(C(=O)N2CCC(COc3cccc4nc(N)nc(N)c34)CC2)cc1 [Example-056]
< 1000 nM	Nc1nc(N)c2c(OCC3CCN(C(=O)c4ccco4)CC3)cccc2n1 [Example-057]
< 1000 nM	Cc1cc(C(=O)N2CCC(COc3cccc4nc(N)nc(N)c34)CC2)no1 [Example-059]
< 1000 nM	Nc1nc(N)c2c(OCC3CCN(C(=O)c4ccc(Cl)cc4Cl)CC3)cccc2n1 [Example-060]
< 1000 nM	Nc1nc(N)c2c(OCC3CCN(C(=O)c4ccccc4OC(F)(F)F)CC3)cccc2n1 [Example-061]
< 1000 nM	Nc1nc(N)c2c(OCC3CCN(C(=O)c4ccc(F)cc4)CC3)cccc2n1 [Example-062]
< 1000 nM	Nc1nc(N)c2c(OCC3CCN(C(=O)c4ccc(OC(F)(F)F)cc4)CC3)cccc2n1 [Example-063]

EC50	SMILES
< 1000 nM	CCc1ccc(C(=O)N2CCC(COc3cccc4nc(N)nc(N)c34)CC2)cc1 [Example-064]
< 1000 nM	Nc1nc(N)c2c(OCC3CCN(C(=O)CSc4ccccc4)CC3)cccc2n1 [Example-070]
< 1000 nM	Nc1nc(N)c2c(OCC3CCN(C(=O)c4ccc(C(F)(F)F)nc4)CC3)cccc2n1 [Example-071]
< 1000 nM	CS(=O)(=O)N1CCC(COc2cccc3nc(N)nc(N)c23)CC1 [Example-072]
< 1000 nM	CC(C)(C)c1ccc(S(=O)(=O)N2CCC(COc3cccc4nc(N)nc(N)c34)CC2)cc1 [Example-073]
< 1000 nM	Nc1nc(N)c2c(OCC3CCN(S(=O)(=O)c4ccc(Cl)s4)CC3)cccc2n1 [Example-074]
< 1000 nM	Nc1nc(N)c2c(OCC3CCN(S(=O)(=O)c4cccs4)CC3)cccc2n1 [Example-075]
< 1000 nM	Cc1noc(C)c1S(=O)(=O)N1CCC(COc2cccc3nc(N)nc(N)c23)CC1 [Example-076]
< 1000 nM	Nc1nc(N)c2c(OCC3CCN(S(=O)(=O)c4cccc(F)c4)CC3)cccc2n1 [Example-077]
< 1000 nM	Nc1nc(N)c2c(OCC3CCN(S(=O)(=O)c4cccc(Cl)c4Cl)CC3)cccc2n1 [Example-078]
< 1000 nM	Cc1ccc(F)cc1S(=O)(=O)N1CCC(COc2cccc3nc(N)nc(N)c23)CC1 [Example-079]
< 1000 nM	COc1ccc(Cl)cc1S(=O)(=O)N1CCC(COc2cccc3nc(N)nc(N)c23)CC1 [Example-080]
< 1000 nM	Cc1c(Cl)cccc1S(=O)(=O)N1CCC(COc2cccc3nc(N)nc(N)c23)CC1 [Example-081]
< 1000 nM	Nc1nc(N)c2c(OCC3CCN(S(=O)(=O)c4ccc(C(F)(F)F)cc4)CC3)cccc2n1 [Example-082]
< 1000 nM	COc1ccc(Br)cc1S(=O)(=O)N1CCC(COc2cccc3nc(N)nc(N)c23)CC1 [Example-083]
< 1000 nM	Nc1nc(N)c2c(OCC3CCN(S(=O)(=O)c4ccc(Cl)cc4Cl)CC3)cccc2n1 [Example-084]
< 1000 nM	Nc1nc(N)c2c(OCC3CCN(S(=O)(=O)c4c(Cl)cccc4Cl)CC3)cccc2n1 [Example-085]
< 1000 nM	CS(=O)(=O)c1ccc(S(=O)(=O)N2CCC(COc3cccc4nc(N)nc(N)c34)CC2)cc1 [Example-086]
< 1000 nM	Nc1nc(N)c2c(OCC3CCN(S(=O)(=O)c4ccccc4C(F)(F)F)CC3)cccc2n1 [Example-087]
< 1000 nM	Nc1nc(N)c2c(OCC3CCN(S(=O)(=O)c4ccc(Cl)c(Cl)c4)CC3)cccc2n1 [Example-088]
< 1000 nM	CC(C)c1ccc(S(=O)(=O)N2CCC(COc3cccc4nc(N)nc(N)c34)CC2)cc1 [Example-089]
< 1000 nM	CC(=O)Nc1ccc(S(=O)(=O)N2CCC(COc3cccc4nc(N)nc(N)c34)CC2)cc1 [Example-090]
< 1000 nM	Cc1noc(C)c1CN1CCC(COc2cccc3nc(N)nc(N)c23)CC1 [Example-091]
< 1000 nM	Nc1nc(N)c2c(OCC3CCN(Cc4cc(Cl)nc(Cl)c4)CC3)cccc2n1 [Example-093]

SMILES	EC50
Cc1ccccc1S(=O)(=O)N1CCC(COc2cccc3nc(N)nc(N)c23)CC1 [Example-031]	< 1000 nM
Cc1ccc(S(=O)(=O)N2CCC(COc3cccc4nc(N)nc(N)c34)CC2)cc1 [Example-033]	< 1000 nM
